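Five concentrations, 48 hours, 96-well plates. GI50: concentration for 50% inhibition of growth.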 Activity calls are given as the source filed them. No stated cut-off is given here; in the data, active = GI50 up to about 1.1 µM and inactive = higher.
Tests used:
Experiment in all cases: growth of human tumour cells (NCI), 48 h
SNB-75 = system: SNB-75
786-0 = system: 786-0
K562 = system: K562
MDA-MB-231 = system: MDA-MB-231
COLO 205 = system: COLO 205
OVCAR-8 = system: OVCAR-8
T47D = system: T47D
Malme-3M = system: Malme-3M
HT-29 = system: HT-29
SF-268 = system: SF-268
IGROV-1 = system: IGROV-1
TK-10 = system: TK-10
RXF 393 = system: RXF 393
SK-MEL-28 = system: SK-MEL-28
DU-145 = system: DU-145
SK-MEL-5 = system: SK-MEL-5
SNB-19 = system: SNB-19
HOP-62 = system: HOP-62
OVCAR-4 = system: OVCAR-4
HCC 2998 = system: HCC 2998

Measured: GI50

CCn1c2ccccc2c2ccc(C3C4C(=O)N(c5cccc6ccccc56)C(=O)C4ON3C(C(N)=O)c3ccccc3)cc21 (centres undefined)
inactive: SNB-75 > 25 µM | 786-0 21.2 µM | K562 14.8 µM | MDA-MB-231 > 25 µM | COLO 205 10.1 µM | OVCAR-8 > 25 µM | T47D 17.9 µM | Malme-3M > 25 µM | HT-29 8.24 µM | SF-268 > 25 µM | IGROV-1 13.4 µM | TK-10 7.16 µM | RXF 393 9.89 µM | SK-MEL-28 > 25 µM | DU-145 14.8 µM | SK-MEL-5 14.2 µM | SNB-19 > 25 µM | HOP-62 > 25 µM | OVCAR-4 14.6 µM

O=Cc1ccc(OCc2cccc(COc3ccc(/C=N\Nc4ccc([N+](=O)[O-])cc4[N+](=O)[O-])cc3)n2)cc1
inactive: 786-0 > 100 µM | K562 > 100 µM | MDA-MB-231 43.6 µM | COLO 205 > 100 µM | OVCAR-8 61 µM | T47D > 100 µM | Malme-3M > 100 µM | HT-29 > 100 µM | SF-268 > 100 µM | IGROV-1 > 100 µM | TK-10 > 100 µM | RXF 393 43.2 µM | SK-MEL-28 > 100 µM | DU-145 > 100 µM | SK-MEL-5 > 100 µM | SNB-19 > 100 µM | HCC 2998 > 100 µM | HOP-62 19.6 µM | OVCAR-4 > 100 µM

O=C(/C=C/c1ccc(O)cc1)c1cc(-c2cc(CCC(=O)c3ccc(O)cc3O)ccc2O)c(O)cc1O
inactive: SNB-75 19.3 µM | 786-0 25.6 µM | K562 17.7 µM | MDA-MB-231 37.8 µM | COLO 205 11.4 µM | OVCAR-8 25.5 µM | T47D 30.6 µM | Malme-3M 24.9 µM | HT-29 14.4 µM | SF-268 22.4 µM | IGROV-1 16.2 µM | TK-10 18.1 µM | RXF 393 41.5 µM | SK-MEL-28 21.7 µM | DU-145 32.4 µM | SK-MEL-5 25.2 µM | SNB-19 26.8 µM | HOP-62 27.4 µM | OVCAR-4 19.7 µM

C#CCCOC(=O)c1ccccc1OC(C)=O
inactive: SNB-75 > 100 µM | 786-0 > 100 µM | K562 > 100 µM | MDA-MB-231 > 100 µM | COLO 205 > 100 µM | OVCAR-8 > 100 µM | T47D > 100 µM | SF-268 > 100 µM | IGROV-1 > 100 µM | TK-10 > 100 µM | RXF 393 > 100 µM | DU-145 > 100 µM | SK-MEL-5 > 100 µM | SNB-19 > 100 µM | HOP-62 70.3 µM | OVCAR-4 > 100 µM

CC[C@]12C=CCN3CC[C@@]4(c5cc(Br)c(OC)cc5N(C)[C@H]4[C@@](O)(C(=O)N[C@@H](Cc4ccc(O)cc4)C(=O)OC)[C@@H]1O)[C@@H]32
inactive: 786-0 49.9 µM | K562 43 µM | MDA-MB-231 11 µM | COLO 205 18.6 µM | OVCAR-8 24.9 µM | T47D 57.7 µM | Malme-3M 14.1 µM | HT-29 14.6 µM | SF-268 13.6 µM | IGROV-1 19.5 µM | TK-10 22.6 µM | RXF 393 17.6 µM | SK-MEL-28 > 100 µM | DU-145 55.1 µM | SK-MEL-5 17.6 µM | SNB-19 > 100 µM | HCC 2998 25.5 µM | HOP-62 46.5 µM | OVCAR-4 14.7 µM

CCOC(=O)Nn1c(C)nnc1CC#N
inactive: SNB-75 > 100 µM | 786-0 > 100 µM | K562 > 100 µM | MDA-MB-231 > 100 µM | OVCAR-8 > 100 µM | T47D > 100 µM | Malme-3M > 100 µM | HT-29 > 100 µM | SF-268 > 100 µM | IGROV-1 > 100 µM | TK-10 > 100 µM | RXF 393 > 100 µM | SK-MEL-28 > 100 µM | DU-145 > 100 µM | SK-MEL-5 > 100 µM | SNB-19 > 100 µM | HCC 2998 > 100 µM | HOP-62 > 100 µM

O=C(CSc1nc2ccc(I)cc2c(=O)n1Cc1ccccc1)Nc1ccccc1
inactive: SNB-75 2.94 µM | 786-0 8.57 µM | K562 39.5 µM | MDA-MB-231 16.5 µM | COLO 205 > 100 µM | OVCAR-8 6.75 µM | T47D 21.2 µM | Malme-3M 6.15 µM | HT-29 > 100 µM | SF-268 8.77 µM | IGROV-1 25.2 µM | RXF 393 10 µM | SK-MEL-28 35.6 µM | DU-145 29.9 µM | SK-MEL-5 32.1 µM | SNB-19 17.5 µM | HOP-62 5.7 µM | OVCAR-4 14.3 µM

CNC(=O)CCC(NC(C)=O)C(=O)NC(Cc1ccc(NC(=O)CCCCC(C)=O)cc1)C(=O)NC(CCC(=O)NC)C(=O)NC (centres undefined)
inactive: 786-0 > 100 µM | K562 > 100 µM | MDA-MB-231 > 100 µM | COLO 205 > 100 µM | OVCAR-8 > 100 µM | T47D > 100 µM | Malme-3M > 100 µM | HT-29 > 100 µM | SF-268 > 100 µM | IGROV-1 > 100 µM | TK-10 > 100 µM | RXF 393 > 100 µM | SK-MEL-28 > 100 µM | DU-145 > 100 µM | SK-MEL-5 > 100 µM | SNB-19 > 100 µM | HCC 2998 > 100 µM | HOP-62 > 100 µM | OVCAR-4 > 100 µM

CC(C)CC(N)C(=O)O (centres undefined)
inactive: SNB-75 > 100 µM | 786-0 > 100 µM | K562 > 100 µM | MDA-MB-231 > 100 µM | COLO 205 > 100 µM | OVCAR-8 > 100 µM | T47D > 100 µM | Malme-3M > 100 µM | HT-29 > 100 µM | SF-268 > 100 µM | IGROV-1 > 100 µM | TK-10 > 100 µM | RXF 393 > 100 µM | SK-MEL-28 > 100 µM | DU-145 > 100 µM | SK-MEL-5 > 100 µM | SNB-19 > 100 µM | HOP-62 > 100 µM | OVCAR-4 > 100 µM

CNC(=S)/C(C#N)=C(\N)N1CCN(C)CC1
inactive: SNB-75 > 100 µM | 786-0 > 100 µM | K562 > 100 µM | MDA-MB-231 30.5 µM | COLO 205 > 100 µM | OVCAR-8 > 100 µM | T47D > 100 µM | Malme-3M > 100 µM | HT-29 > 100 µM | SF-268 > 100 µM | IGROV-1 > 100 µM | TK-10 > 100 µM | RXF 393 > 100 µM | DU-145 > 100 µM | SK-MEL-5 > 100 µM | SNB-19 > 100 µM | HCC 2998 > 100 µM | HOP-62 > 100 µM
